Laboratory results from PMC3804614, “Transient Receptor Potential Channels Encode Volatile Chemicals Sensed by Rat Trigeminal Ganglion Neurons” (PLoS ONE, 2013).
Read-outs that look alike come from different tables or passages of the source.

How the values were obtained:
Format in all cases: cell-based
[1] = target: T1, rTRPV1 (Rattus norvegicus, UniProt O35433); assay: whole-cell voltage clamp, CHO cells expressing rTRPV1; block of odorant-evoked currents
T1 construct: gene Trpv1

[2] = target: T2, rTRPA1 (Rattus norvegicus, UniProt Q6RI86); assay: whole-cell voltage clamp, CHO cells expressing rTRPA1; block of odorant-evoked currents
T2 construct: gene Trpa1
T2 sequence (Q6RI86 whole entry): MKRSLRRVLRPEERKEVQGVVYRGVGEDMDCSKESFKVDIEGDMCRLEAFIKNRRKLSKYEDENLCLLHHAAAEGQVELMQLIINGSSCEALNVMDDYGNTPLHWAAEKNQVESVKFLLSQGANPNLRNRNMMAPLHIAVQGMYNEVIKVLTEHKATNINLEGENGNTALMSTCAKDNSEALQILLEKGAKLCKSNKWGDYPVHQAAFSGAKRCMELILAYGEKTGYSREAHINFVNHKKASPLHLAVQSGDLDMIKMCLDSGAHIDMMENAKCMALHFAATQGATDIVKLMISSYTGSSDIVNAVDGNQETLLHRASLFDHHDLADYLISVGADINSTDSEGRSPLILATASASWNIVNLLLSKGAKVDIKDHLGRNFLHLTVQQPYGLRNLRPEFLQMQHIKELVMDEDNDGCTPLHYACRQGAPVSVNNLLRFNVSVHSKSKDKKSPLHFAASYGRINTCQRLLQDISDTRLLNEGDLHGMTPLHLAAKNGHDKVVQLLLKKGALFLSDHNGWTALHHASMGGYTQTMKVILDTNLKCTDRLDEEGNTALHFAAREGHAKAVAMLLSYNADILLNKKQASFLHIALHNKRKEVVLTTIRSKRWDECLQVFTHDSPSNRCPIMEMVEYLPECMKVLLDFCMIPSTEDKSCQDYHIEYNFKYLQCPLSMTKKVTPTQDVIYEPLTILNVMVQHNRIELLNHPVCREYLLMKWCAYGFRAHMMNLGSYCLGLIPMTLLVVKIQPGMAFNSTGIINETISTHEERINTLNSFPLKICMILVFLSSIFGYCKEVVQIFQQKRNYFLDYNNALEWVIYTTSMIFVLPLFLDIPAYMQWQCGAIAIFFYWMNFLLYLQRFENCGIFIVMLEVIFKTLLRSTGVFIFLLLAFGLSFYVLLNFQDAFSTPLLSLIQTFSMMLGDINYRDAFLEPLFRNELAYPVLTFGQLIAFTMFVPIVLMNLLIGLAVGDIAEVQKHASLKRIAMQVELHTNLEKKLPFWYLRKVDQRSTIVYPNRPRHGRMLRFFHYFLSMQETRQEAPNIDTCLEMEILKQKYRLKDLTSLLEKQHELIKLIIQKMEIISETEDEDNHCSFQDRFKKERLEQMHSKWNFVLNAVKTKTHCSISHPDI

[3] = target: rTASK1 (K2P3, KCNK3) (Rattus norvegicus, UniProt O54912); assay: two-electrode voltage clamp, Xenopus oocytes expressing rTASK1, dose-response
Chain of rTASK1 (K2P3, KCNK3) (O54912 whole entry): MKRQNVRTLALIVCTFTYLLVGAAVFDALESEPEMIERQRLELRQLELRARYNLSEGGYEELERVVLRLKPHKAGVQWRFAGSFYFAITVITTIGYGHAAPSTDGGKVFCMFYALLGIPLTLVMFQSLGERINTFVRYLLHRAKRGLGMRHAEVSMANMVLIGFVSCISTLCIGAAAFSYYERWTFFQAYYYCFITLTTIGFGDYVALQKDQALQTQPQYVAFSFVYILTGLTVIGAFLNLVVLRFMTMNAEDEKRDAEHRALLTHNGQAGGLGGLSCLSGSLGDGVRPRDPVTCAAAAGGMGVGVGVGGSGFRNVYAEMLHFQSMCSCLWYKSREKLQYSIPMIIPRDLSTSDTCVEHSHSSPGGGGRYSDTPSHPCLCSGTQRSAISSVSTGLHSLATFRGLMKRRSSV

T1 sequence (O35433 whole entry): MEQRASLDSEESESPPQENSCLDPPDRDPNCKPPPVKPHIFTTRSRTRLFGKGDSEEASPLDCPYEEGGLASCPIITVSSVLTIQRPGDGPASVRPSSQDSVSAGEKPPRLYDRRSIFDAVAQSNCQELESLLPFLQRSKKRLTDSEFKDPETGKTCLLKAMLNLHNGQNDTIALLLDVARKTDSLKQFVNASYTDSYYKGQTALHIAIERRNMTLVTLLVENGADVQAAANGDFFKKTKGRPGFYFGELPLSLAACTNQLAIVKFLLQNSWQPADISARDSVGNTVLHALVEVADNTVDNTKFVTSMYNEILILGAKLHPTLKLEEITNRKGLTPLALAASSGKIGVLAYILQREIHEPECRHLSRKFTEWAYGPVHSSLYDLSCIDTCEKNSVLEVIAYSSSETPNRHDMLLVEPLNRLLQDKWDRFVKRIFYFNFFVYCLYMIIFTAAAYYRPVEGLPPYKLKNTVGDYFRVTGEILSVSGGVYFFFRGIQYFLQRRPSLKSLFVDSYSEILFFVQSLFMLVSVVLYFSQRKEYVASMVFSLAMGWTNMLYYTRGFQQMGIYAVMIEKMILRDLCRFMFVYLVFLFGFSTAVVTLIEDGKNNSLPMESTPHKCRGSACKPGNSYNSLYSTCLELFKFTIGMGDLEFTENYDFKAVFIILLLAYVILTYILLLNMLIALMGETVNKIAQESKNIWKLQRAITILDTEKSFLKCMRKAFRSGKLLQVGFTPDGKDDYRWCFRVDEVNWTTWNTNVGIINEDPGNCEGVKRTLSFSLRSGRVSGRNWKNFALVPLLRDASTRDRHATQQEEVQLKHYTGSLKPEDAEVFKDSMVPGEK

Oc1cc2c(cc1O)CN(C(=S)NCCc1ccc(Cl)cc1)CCC2 [CPZ, capsazepine]
whole-cell voltage clamp, CHO cells expressing rTRPV1; block of odorant-evoked c [1]: Co-administration of CPZ nearly completely inhibited all odorant-evoked outward currents

CC(C)c1ccc(NC(=O)Cn2cnc3c2c(=O)n(C)c(=O)n3C)cc1 [HC, HC-030031]
whole-cell voltage clamp, CHO cells expressing rTRPA1; block of odorant-evoked c [2]: Co-administration of HC nearly completely inhibited vanillin- and HTPA-evoked outward and inward currents

CC(C)=CCC/C(C)=C/CO [geraniol]
IC50 ([3]; read-out: IC50): 580 ± 90 µM

CC(=O)CCc1ccc2c(c1)OCO2 [heliotropyl acetone]
IC50 [3]: 890 ± 120 µM
